Data on 11 molecules can be found in ChEMBL document CHEMBL3351271, “Design, synthesis and biological evaluation of novel potent MDM2/p53 small-molecule inhibitors” (Bioorg Med Chem Lett, 2015).

By IC50 is commonly meant the point on the concentration scale where inhibition reaches its midpoint. What is called CC50 is the concentration giving 50% cytotoxicity. The term Ki denotes a measure of affinity in units of concentration, obtained from inhibition or displacement. Read a low Ki as a stronger hold on the target.

Structures are written as SMILES. Where only a bound is given, the exact number is not on record here.

Tumour suppressor p53/oncoprotein Mdm2, sequence (P04637 whole entry): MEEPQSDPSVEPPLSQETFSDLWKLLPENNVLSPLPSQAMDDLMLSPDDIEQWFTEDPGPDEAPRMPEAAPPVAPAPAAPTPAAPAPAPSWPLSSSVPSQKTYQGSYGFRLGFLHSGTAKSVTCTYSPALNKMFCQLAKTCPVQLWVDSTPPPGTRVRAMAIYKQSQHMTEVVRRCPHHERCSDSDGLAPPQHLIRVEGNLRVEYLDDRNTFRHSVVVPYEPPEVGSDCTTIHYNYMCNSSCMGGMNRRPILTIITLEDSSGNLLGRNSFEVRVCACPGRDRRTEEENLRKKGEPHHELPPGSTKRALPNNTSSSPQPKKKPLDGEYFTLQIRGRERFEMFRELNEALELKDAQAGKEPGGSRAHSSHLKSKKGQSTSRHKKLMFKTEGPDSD
Tumour suppressor p53/oncoprotein Mdm2, sequence (Q00987 whole entry): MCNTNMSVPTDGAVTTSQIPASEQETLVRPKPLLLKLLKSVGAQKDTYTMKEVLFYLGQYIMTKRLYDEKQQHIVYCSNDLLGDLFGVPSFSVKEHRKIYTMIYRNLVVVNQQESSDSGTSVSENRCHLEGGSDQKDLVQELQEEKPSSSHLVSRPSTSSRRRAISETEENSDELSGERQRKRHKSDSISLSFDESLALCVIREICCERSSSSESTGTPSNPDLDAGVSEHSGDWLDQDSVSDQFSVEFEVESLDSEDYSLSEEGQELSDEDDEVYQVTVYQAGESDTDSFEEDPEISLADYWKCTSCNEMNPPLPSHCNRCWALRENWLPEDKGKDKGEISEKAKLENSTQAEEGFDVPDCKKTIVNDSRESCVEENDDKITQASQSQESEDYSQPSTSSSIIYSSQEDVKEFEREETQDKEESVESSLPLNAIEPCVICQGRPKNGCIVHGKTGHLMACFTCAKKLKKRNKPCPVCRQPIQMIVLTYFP

System in one assay: not listed separately
Nature of the assay: Cytotoxicity against p53 expressing human HCT116 cells after 48 hrs by MTT assay. It counts as functional, cell-based. To be noted: HCT-116, 48 h. For orientation: Tetrazolium dyes change colour on reduction, which living cells bring about.
`CC(C)Oc1ccc(C2CN(C)[C@]3(C(=O)Nc4ccccc43)[C@]23NC(=S)N(c2ccc(F)c(Cl)c2)C3=O)cc1` (stereo partly specified): the midpoint of inhibition, the IC50, lay at 8.55 µM.
Still for that read-out and setting: the value for `CN1CC(c2ccc(Cl)cc2)[C@@]2(NC(=S)N(c3ccc(F)c(Cl)c3)C2=O)[C@@]12C(=O)Nc1ccccc12` (stereo partly specified) was 7.78 µM; that for `CC(C)Oc1ccc(C2CN(C)[C@]3(C(=O)Nc4ccc(Br)cc43)[C@]23NC(=S)N(c2ccc(F)c(Cl)c2)C3=O)cc1` (stereo partly specified) was 38.8 µM.
The same measure, in the same setting: the value for `CCOc1ccc(N2C(=O)[C@@]3(NC2=S)C(c2ccc(Cl)cc2)CN(C)[C@]32C(=O)Nc3ccccc32)cc1` (stereo partly specified) was 8.6 µM.
The same measure, in the same setting: the value for `CCc1ccc(C2CN(C)[C@]3(C(=O)Nc4ccccc43)[C@]23NC(=S)N(c2ccc(F)c(Cl)c2)C3=O)cc1` (stereo partly specified) was 8.6 µM; that for `CCOc1ccc(N2C(=O)[C@@]3(NC2=S)C(c2ccc(Cl)cc2)CN(C)[C@]32C(=O)Nc3ccc(Br)cc32)cc1` (stereo partly specified) was at least 50 µM; that for `CN1CC(c2ccc(Cl)cc2)[C@@]2(NC(=S)N(c3ccc(F)c(Cl)c3)C2=O)[C@@]12C(=O)Nc1ccc(Br)cc12` (stereo partly specified) was 9.9 µM.
The molecule `CCc1ccc(C2CN(C)[C@]3(C(=O)Nc4ccc(Br)cc43)[C@]23NC(=S)N(c2ccc(F)c(Cl)c2)C3=O)cc1` (stereo partly specified) had an IC50 of 11.6 µM.

A further assay has as its system HepG2. Nature of the assay: Cytotoxicity against human HepG2 cells after 48 hrs by MTT assay. It counts as functional, cell-based. To be noted: HepG2, 48 h.
The molecule `CC(C)Oc1ccc(C2CN(C)[C@]3(C(=O)Nc4ccccc43)[C@]23NC(=S)N(c2ccc(F)c(Cl)c2)C3=O)cc1` (stereo partly specified) displayed an IC50 of 49.9 µM.
Same read-out and setting: the value for `CN1CC(c2ccc(Cl)cc2)[C@@]2(NC(=S)N(c3ccc(F)c(Cl)c3)C2=O)[C@@]12C(=O)Nc1ccccc12` (stereo partly specified) was 9.08 µM; that for `CC(C)Oc1ccc(C2CN(C)[C@]3(C(=O)Nc4ccc(Br)cc43)[C@]23NC(=S)N(c2ccc(F)c(Cl)c2)C3=O)cc1` (stereo partly specified) was 34.6 µM; that for `CCOc1ccc(N2C(=O)[C@@]3(NC2=S)C(c2ccc(Cl)cc2)CN(C)[C@]32C(=O)Nc3ccccc32)cc1` (stereo partly specified) was 103 µM.
Still for that read-out and setting: the same measure for `CCc1ccc(C2CN(C)[C@]3(C(=O)Nc4ccccc43)[C@]23NC(=S)N(c2ccc(F)c(Cl)c2)C3=O)cc1` (stereo partly specified): 33.9 µM.
On the same count and under the same terms, the value for `CCOc1ccc(N2C(=O)[C@@]3(NC2=S)C(c2ccc(Cl)cc2)CN(C)[C@]32C(=O)Nc3ccc(Br)cc32)cc1` (stereo partly specified) was 42.1 µM.
Turning to `CN1CC(c2ccc(Cl)cc2)[C@@]2(NC(=S)N(c3ccc(F)c(Cl)c3)C2=O)[C@@]12C(=O)Nc1ccc(Br)cc12` (stereo partly specified), the IC50 is 11.1 µM.
Same read-out and setting: the value for `CCc1ccc(C2CN(C)[C@]3(C(=O)Nc4ccc(Br)cc43)[C@]23NC(=S)N(c2ccc(F)c(Cl)c2)C3=O)cc1` (stereo partly specified) was 23 µM; that for `COc1ccc(C2=N[C@@H](c3ccc(Cl)cc3)[C@@H](c3ccc(Cl)cc3)N2C(=O)N2CCNC(=O)C2)c(OC(C)C)c1` [NUTLIN-3] was 5.1 µM.

For another assay, the system named is MCF7. Description: Cytotoxicity against human MCF7 cells after 120 hrs by MTT assay. It counts as functional. To be noted: MCF7, 120 h.
The molecule `CCOc1cc(C(C)(C)C)ccc1C1=N[C@@](C)(c2ccc(Cl)cc2)[C@@](C)(c2ccc(Cl)cc2)N1C(=O)N1CCN(CCS(C)(=O)=O)CC1` displayed a CC50 of 940 nM.

The subject of the next assay is MCF7. Description: Cytotoxicity against human MCF7 cells after 48 hrs by MTT assay. It counts as functional, cell-based. To be noted: MCF7, 48 h.
Turning to `CC(C)Oc1ccc(C2CN(C)[C@]3(C(=O)Nc4ccccc43)[C@]23NC(=S)N(c2ccc(F)c(Cl)c2)C3=O)cc1` (stereo partly specified), inhibition was half-maximal at 20.2 µM (IC50).
The same measure, in the same setting: the value for `CN1CC(c2ccc(Cl)cc2)[C@@]2(NC(=S)N(c3ccc(F)c(Cl)c3)C2=O)[C@@]12C(=O)Nc1ccccc12` (stereo partly specified) was 4.88 µM; that for `CC(C)Oc1ccc(C2CN(C)[C@]3(C(=O)Nc4ccc(Br)cc43)[C@]23NC(=S)N(c2ccc(F)c(Cl)c2)C3=O)cc1` (stereo partly specified) was 34.9 µM; that for `CCOc1ccc(N2C(=O)[C@@]3(NC2=S)C(c2ccc(Cl)cc2)CN(C)[C@]32C(=O)Nc3ccccc32)cc1` (stereo partly specified) was 87.7 µM.
On the same count and under the same terms, the same measure for `CCc1ccc(C2CN(C)[C@]3(C(=O)Nc4ccccc43)[C@]23NC(=S)N(c2ccc(F)c(Cl)c2)C3=O)cc1` (stereo partly specified): 19 µM; for `CCOc1ccc(N2C(=O)[C@@]3(NC2=S)C(c2ccc(Cl)cc2)CN(C)[C@]32C(=O)Nc3ccc(Br)cc32)cc1` (stereo partly specified): 34.9 µM; for `CN1CC(c2ccc(Cl)cc2)[C@@]2(NC(=S)N(c3ccc(F)c(Cl)c3)C2=O)[C@@]12C(=O)Nc1ccc(Br)cc12` (stereo partly specified): 6.84 µM.
Same read-out and setting: the same measure for `CCc1ccc(C2CN(C)[C@]3(C(=O)Nc4ccc(Br)cc43)[C@]23NC(=S)N(c2ccc(F)c(Cl)c2)C3=O)cc1` (stereo partly specified): 15.5 µM.

System in the next assay: not listed separately
Nature of the assay: Cytotoxicity against p53 deficient human HCT116 cells after 48 hrs by MTT assay. The assay is classed as functional, cell-based. To be noted: HCT-116, 48 h.
In turn, `CC(C)Oc1ccc(C2CN(C)[C@]3(C(=O)Nc4ccccc43)[C@]23NC(=S)N(c2ccc(F)c(Cl)c2)C3=O)cc1` (stereo partly specified) came in with an IC50 of 7.4 µM.
On the same count and under the same terms, the same measure for `CN1CC(c2ccc(Cl)cc2)[C@@]2(NC(=S)N(c3ccc(F)c(Cl)c3)C2=O)[C@@]12C(=O)Nc1ccccc12` (stereo partly specified): 7.33 µM; for `CC(C)Oc1ccc(C2CN(C)[C@]3(C(=O)Nc4ccc(Br)cc43)[C@]23NC(=S)N(c2ccc(F)c(Cl)c2)C3=O)cc1` (stereo partly specified): 19.4 µM; for `CCOc1ccc(N2C(=O)[C@@]3(NC2=S)C(c2ccc(Cl)cc2)CN(C)[C@]32C(=O)Nc3ccccc32)cc1` (stereo partly specified): 8.57 µM.
On the same count and under the same terms, the same measure for `CCc1ccc(C2CN(C)[C@]3(C(=O)Nc4ccccc43)[C@]23NC(=S)N(c2ccc(F)c(Cl)c2)C3=O)cc1` (stereo partly specified): 8.45 µM; for `CCOc1ccc(N2C(=O)[C@@]3(NC2=S)C(c2ccc(Cl)cc2)CN(C)[C@]32C(=O)Nc3ccc(Br)cc32)cc1` (stereo partly specified): 16.3 µM; for `CN1CC(c2ccc(Cl)cc2)[C@@]2(NC(=S)N(c3ccc(F)c(Cl)c3)C2=O)[C@@]12C(=O)Nc1ccc(Br)cc12` (stereo partly specified): 8.65 µM.
Still for that read-out and setting: the value for `CCc1ccc(C2CN(C)[C@]3(C(=O)Nc4ccc(Br)cc43)[C@]23NC(=S)N(c2ccc(F)c(Cl)c2)C3=O)cc1` (stereo partly specified) was 33.5 µM.

Another assay has as its system SiHa. Nature of the assay: Cytotoxicity against human SiHa cells after 48 hrs by MTT assay. To be noted: Homo sapiens, SiHa, 48 h; read-out: IC50. The assay is classed as functional, cell-based.
Take `CN1CC(c2ccc(Cl)cc2)[C@@]2(NC(=S)N(c3ccc(F)c(Cl)c3)C2=O)[C@@]12C(=O)Nc1ccccc12` (stereo partly specified): the IC50 came to 7.65 µM.
The same measure, in the same setting: the value for `CCOc1ccc(N2C(=O)[C@@]3(NC2=S)C(c2ccc(Cl)cc2)CN(C)[C@]32C(=O)Nc3ccccc32)cc1` (stereo partly specified) was 81.7 µM; that for `CCc1ccc(C2CN(C)[C@]3(C(=O)Nc4ccccc43)[C@]23NC(=S)N(c2ccc(F)c(Cl)c2)C3=O)cc1` (stereo partly specified) was 42.5 µM.
On the same count and under the same terms, the same measure for `CN1CC(c2ccc(Cl)cc2)[C@@]2(NC(=S)N(c3ccc(F)c(Cl)c3)C2=O)[C@@]12C(=O)Nc1ccc(Br)cc12` (stereo partly specified): 12.1 µM; for `CCc1ccc(C2CN(C)[C@]3(C(=O)Nc4ccc(Br)cc43)[C@]23NC(=S)N(c2ccc(F)c(Cl)c2)C3=O)cc1` (stereo partly specified): 79.1 µM.

The same assay, now with this note: siha.
Turning to `CC(C)Oc1ccc(C2CN(C)[C@]3(C(=O)Nc4ccccc43)[C@]23NC(=S)N(c2ccc(F)c(Cl)c2)C3=O)cc1` (stereo partly specified), the IC50 result is listed as “Not Active”.
On the same count and under the same terms, the same measure for `CC(C)Oc1ccc(C2CN(C)[C@]3(C(=O)Nc4ccc(Br)cc43)[C@]23NC(=S)N(c2ccc(F)c(Cl)c2)C3=O)cc1` (stereo partly specified): “Not Active”.
The same measure, in the same setting: the same measure for `CCOc1ccc(N2C(=O)[C@@]3(NC2=S)C(c2ccc(Cl)cc2)CN(C)[C@]32C(=O)Nc3ccc(Br)cc32)cc1` (stereo partly specified): “Not Active”.

Another assay deals with HEK293. Nature of the assay: Cytotoxicity against HEK293 cells after 48 hrs by MTT assay. The assay is classed as cell-based. To be noted: Homo sapiens, HEK293, 48 h.
For the molecule `CC(C)Oc1ccc(C2CN(C)[C@]3(C(=O)Nc4ccccc43)[C@]23NC(=S)N(c2ccc(F)c(Cl)c2)C3=O)cc1` (stereo partly specified), the IC50 was 13.5 µM.
Still for that read-out and setting: the value for `CN1CC(c2ccc(Cl)cc2)[C@@]2(NC(=S)N(c3ccc(F)c(Cl)c3)C2=O)[C@@]12C(=O)Nc1ccccc12` (stereo partly specified) was 5.68 µM; that for `CC(C)Oc1ccc(C2CN(C)[C@]3(C(=O)Nc4ccc(Br)cc43)[C@]23NC(=S)N(c2ccc(F)c(Cl)c2)C3=O)cc1` (stereo partly specified) was 15.8 µM.
`CCOc1ccc(N2C(=O)[C@@]3(NC2=S)C(c2ccc(Cl)cc2)CN(C)[C@]32C(=O)Nc3ccccc32)cc1` (stereo partly specified) returned an IC50 of 9.1 µM.
The same measure, in the same setting: the value for `CCc1ccc(C2CN(C)[C@]3(C(=O)Nc4ccccc43)[C@]23NC(=S)N(c2ccc(F)c(Cl)c2)C3=O)cc1` (stereo partly specified) was 12.5 µM; that for `CCOc1ccc(N2C(=O)[C@@]3(NC2=S)C(c2ccc(Cl)cc2)CN(C)[C@]32C(=O)Nc3ccc(Br)cc32)cc1` (stereo partly specified) was 28.6 µM.
On the same count and under the same terms, the value for `CN1CC(c2ccc(Cl)cc2)[C@@]2(NC(=S)N(c3ccc(F)c(Cl)c3)C2=O)[C@@]12C(=O)Nc1ccc(Br)cc12` (stereo partly specified) was 10.3 µM.
The same measure, in the same setting: the value for `CCc1ccc(C2CN(C)[C@]3(C(=O)Nc4ccc(Br)cc43)[C@]23NC(=S)N(c2ccc(F)c(Cl)c2)C3=O)cc1` (stereo partly specified) was 15.6 µM.

The next assay concerns the target Tumour suppressor p53/oncoprotein Mdm2 (Homo sapiens, UniProt Q00987). Description: Inhibition of MDM2/P53 (unknown origin) protein interaction by fluorescent polarization assay.
Settings: not given; call rule not given here
Consider `CC(C)CC(N/C(C(=O)NCc1ccccc1)=C1\C(C(=O)NO)=Nc2cc(Cl)ccc21)C(=O)NO` (stereo unspecified), for which the Ki is 900 nM. This counts as sub-micromolar.
